Test results reported in patent US20260315611A1, “LINKER COMPOUNDS AND LIGAND-DRUG CONJUGATES, PREPARATION METHODS AND USES THEREOF” (Biocytogen Pharmaceuticals (Beijing) Co., Ltd., priority 2023, published 2026).
pIC50: −log10 of the molar value.

What was measured:
A-431 = assay: in vitro killing activity; format: cell-based, Human; settings: 120 time of incubation
Description: (§1) Different concentrations of compounds CPT-1, CPT-2, CPT-3, CPT-4, Dxd (MedChem Express, Cat #: HY-13631D) and SN38 (MedChem Express, Cat #: HY-13704) were used to treat different human tumor cell lines, mice tumor cell lines, rat tumor cell lines or dog tumor cell lines cultured in a cell culture plate, respectively. And the killing activity was detected after 72 h-120 h incubation by IncuCyte (Sartorius AG, IncuCyte® S3) or MicroplateReader.

BT474 = assay: in vitro killing activity; format: cell-based, Human; settings: 120 time of incubation
Description: as §1

BxPC-3 = assay: in vitro killing activity; format: cell-based, Human; settings: 120 time of incubation
Description: as §1

HCC1954 = assay: in vitro killing activity; format: cell-based, Human; settings: 120 time of incubation
Description: as §1

HS-746T = assay: in vitro killing activity; format: cell-based, Human; settings: 120 time of incubation
Description: as §1

Hela = assay: in vitro killing activity; format: cell-based, Human; settings: 120 h incubation
Description: as §1

HuH-7 = assay: in vitro killing activity; format: cell-based, Human; settings: 120 h incubation
Description: as §1

LOVO = assay: in vitro killing activity; format: cell-based, Human; settings: 120 h incubation
Description: as §1

NCI-H1781 = assay: in vitro killing activity; format: cell-based, Human; settings: 120 time of incubation
Description: as §1

NCI-H1975 = assay: in vitro killing activity; format: cell-based, Human; settings: 120 time of incubation
Description: as §1

NCI-H2030 = assay: in vitro killing activity; format: cell-based, Human; settings: 120 time of incubation
Description: as §1

NCI-H226 = assay: in vitro killing activity; format: cell-based, Human; settings: 120 h incubation
Description: as §1

NCI-H69 = assay: in vitro killing activity; format: cell-based, Human; settings: 120 time of incubation
Description: as §1

NCI-N87 = assay: in vitro killing activity; format: cell-based, Human; settings: 120 time of incubation
Description: as §1

OVKATE = assay: in vitro killing activity; format: cell-based, Human; settings: 120 time of incubation
Description: as §1

PC-3 = assay: in vitro killing activity; format: cell-based, Human; settings: 120 time of incubation
Description: as §1

Panc 02.03 = assay: in vitro killing activity; format: cell-based, Human; settings: 120 time of incubation
Description: as §1

SKOV-3 = assay: in vitro killing activity; format: cell-based, Human; settings: 120 time of incubation
Description: as §1

SW156 = assay: in vitro killing activity; format: cell-based, Human; settings: 120 time of incubation
Description: as §1

SW620 = assay: in vitro killing activity; format: cell-based, Human; settings: 120 h incubation
Description: as §1

U-2-OS = assay: in vitro killing activity; format: cell-based, Human; settings: 120 time of incubation
Description: as §1

CMT-U27 = assay: in vitro killing activity; format: cell-based, Dog; settings: 120 time of incubation
Description: as §1

D17 = assay: in vitro killing activity; format: cell-based, Dog; settings: 120 time of incubation
Description: as §1

DCOL1 (S+L−) = assay: in vitro killing activity; format: cell-based, Dog; settings: 120 time of incubation
Description: as §1

MP-0094-2 = assay: in vitro killing activity; format: cell-based, Dog; settings: 120 time of incubation
Description: as §1

MP-0094-3 = assay: in vitro killing activity; format: cell-based, Dog; settings: 120 time of incubation
Description: as §1

MP-1044-1 = assay: in vitro killing activity; format: cell-based, Dog; settings: 72 time of incubation
Description: as §1

MP-1092-1 = assay: in vitro killing activity; format: cell-based, Dog; settings: 120 time of incubation
Description: as §1

B16F10 = assay: in vitro killing activity; format: cell-based, Mice; settings: 75 time of incubation
Description: as §1

CT26 = assay: in vitro killing activity; format: cell-based, Mice; settings: 96 time of incubation
Description: as §1

MC38 = assay: in vitro killing activity; format: cell-based, Mice; settings: 120 time of incubation
Description: as §1

L6 = assay: in vitro killing activity; format: cell-based, Rat; settings: 120 h incubation
Description: as §1

PC12 = assay: in vitro killing activity; format: cell-based, Rat; settings: 120 time of incubation
Description: as §1

Pgp = settings: cited from earlier work

CC[C@@]1(O)C(=O)OCc2c1cc1n(c2=O)Cc2c-1nc1cc(F)c(C)c3c1c2[C@@H](NC(=O)CO)CC3 [Dxd, reference compound]
pIC50 (A-431): 7.55
pIC50 (BT474): 7.96
pIC50 (BxPC-3): 8.73
pIC50 (HCC1954): 8.48
pIC50 (HS-746T): 8.98
pIC50 (Hela): 8.17
pIC50 (HuH-7): 8.86
pIC50 (LOVO): 8.06
pIC50 (NCI-H1781): 9.14
pIC50 (NCI-H1975): 8.00
pIC50 (NCI-H2030): 8.19
pIC50 (NCI-H226): 7.64
pIC50 (NCI-H69): 9.52
pIC50 (NCI-N87): 8.15
pIC50 (OVKATE): 7.91
pIC50 (PC-3): 8.19
pIC50 (Panc 02.03): 8.50
pIC50 (SKOV-3): 7.78
pIC50 (SW156): 8.74
pIC50 (SW620): 8.41
pIC50 (U-2-OS): 7.38
pIC50 (CMT-U27): 8.47
pIC50 (D17): 8.22
pIC50 (DCOL1 (S+L−)): 8.04
pIC50 (MP-0094-2): 8.01
pIC50 (MP-0094-3): 7.66
pIC50 (MP-1044-1): 7.38
pIC50 (MP-1092-1): 8.15
pIC50 (B16F10): 7.58
pIC50 (CT26): 7.03
pIC50 (MC38): 7.41
pIC50 (L6): 7.86
pIC50 (PC12): 8.04
Pgp substrate (Pgp): Pgp substrates
